Key:
[1] = Solubility of reduced coenzyme Q10 crystals in fats and oils at 30° C.; type: physicochemical
Description: The solubility of the crystals obtained in Production Example 1 in medium-chain fatty acid triglyceride (MCT, C8:C10=6:4), soybean oil, safflower oil, or rice oil at 30° C. is shown in Table 8.

[2] = Storage stability of reduced coenzyme Q10 compositions in the air at 40° C., light-shielded, 3 days (HPLC weight ratio); type: physicochemical; settings: vitamin E content high (4.11% by weight based on the system excluding coenzyme Q10)
Description: The purity and reduced coenzyme Q10/oxidized coenzyme Q10 ratio (weight ratio) were determined by the following HPLC analysis.
C18 (product of Waters), 250 mm (in length), 4.6 mm (in inside diameter): mobile phase; C2H5OH/CH3OH=4/3 (v/v): detection wavelength; 210 nm: flow rate; 1 ml/min: retention time of reduced coenzyme Q10; 9.1 min: retention time of oxidized coenzyme Q10; 13.3 min.
The crystals obtained in Production Example 1 were added to soybean oil, glycerol, and a mixture thereof, respectively, to a concentration of 6% by weight, and the resulting mixtures were stored in the air at 40° C. under a light-shielded condition for 3 days, and the reduced coenzyme Q10/oxidized coenzyme Q10 weight ratios in the solutions were determined.
The crystals obtained in Production Example 1 were added to various fats and oils specified in Table 2, respectively, to a concentration of 6% by weight, and the resulting mixtures were stored in the air at 40° C. under a light-shielded condition for 3 days, and the reduced coenzyme Q10/oxidized coenzyme Q10 weight ratios in the solutions were determined.
The crystals obtained in Production Example 1 were added to olive oil to a concentration of 6% by weight, and the resulting mixture was stored in the air at 40° C. under a light-shielded condition for 3 days. […]

Row | Compound | Solubility ([1]; in MCT (C8:C10=6:4) at 30° C.) [wt %] | Solubility ([1]; in rice oil at 30° C.) [wt %] | Solubility ([1]; in safflower oil at 30° C.) [wt %] | Solubility ([1]; in soybean oil at 30° C.) [wt %] | effect on stabilization of reduced coenzyme Q10, in words [2]
1 | COc1c(O)c(C)c(C/C=C(\C)CC/C=C(\C)CC/C=C(\C)CC/C=C(\C)CC/C=C(\C)CC/C=C(\C)CC/C=C(\C)CC/C=C(\C)CC/C=C(\C)CCC=C(C)C)c(O)c1OC [Compar. Ex. 1, reduced coenzyme Q10] | 22.4 | 10.2 | 11.1 | 10.9 | 
2 | vitamin E |  |  |  |  | inhibits the stabilization of reduced coenzyme Q10
